N#Cc1c(Cl)c(Cl)c(Cl)c(C#N)c1Cl
solubility (mole fraction)
Conditions | in 1,4-dioxane | in DMAc | in DMF | in MIBK | in THF | in acetone | in acetonitrile | in cyclohexanone | in ethyl acetate | in n-propyl acetate
288.15 K | 0.0082 | 0.017 | 0.00992 | 0.00381 | 0.00909 | 0.00369 | 0.00134 | 0.0079 | 0.00311 | 0.0033
293.15 K | 0.00951 | 0.0191 | 0.0111 | 0.00447 | 0.0102 | 0.00443 | 0.00161 | 0.00905 | 0.00374 | 0.00384
298.15 K | 0.0109 | 0.0211 | 0.0128 | 0.00509 | 0.012 | 0.00512 | 0.00193 | 0.0106 | 0.00435 | 0.00444
303.15 K | 0.0118 | 0.0239 | 0.0142 | 0.00603 | 0.0137 | 0.00566 | 0.00228 | 0.0123 | 0.00496 | 0.00523
308.15 K | 0.0136 | 0.0264 | 0.0155 | 0.00668 | 0.0155 | 0.00682 | 0.00272 | 0.0135 | 0.00543 | 0.00566
313.15 K | 0.015 | 0.03 | 0.0177 | 0.00802 | 0.0172 | 0.00779 | 0.00308 | 0.0154 | 0.00643 | 0.0067
318.15 K | 0.0177 | 0.0334 | 0.0197 | 0.0102 | 0.0208 | 0.00932 | 0.00413 | 0.019 | 0.00744 | 0.0079
323.15 K | 0.0215 | 0.0359 | 0.0233 | 0.0115 | 0.023 | 0.0113 | 0.00462 | 0.0222 | 0.00893 | 0.00904

Source: BigSolDB 2.1
